Our source for the melting point values is a melting point compilation (Tetko et al.; mined from patent text by program, amines drawn as free bases though some values may be those of a salt).

What is called melting point is the temperature, or range, at which the solid turns liquid.

Regarding `CCOc1ccc2[nH]c(=O)n(C3CCCCCC3)c2c1`, the melting point was 204 °C.
As to `CN1CC2Cc3ccc(Cl)cc3C(=O)C2C1` (stereo not drawn), the melting point is 148 to 150 °C.
`COc1ccc(-c2nc(S(=O)c3ccccc3)n(C)c2-c2ccc(OC)cc2)cc1` (stereo not drawn) registered a melting point of 114 to 115 °C.
Take `COc1cc(N2CCN(Cc3ccc(CNC(C)=O)cc3)CC2)nc(OC)n1`: the melting point was 89 to 90 °C.
The molecule `CCOC(=O)Cc1sc(Sc2cc(C(=O)OC)ccn2)nc1C` displayed a melting point of 52 to 54 °C.
As to `CN(C)N=C(CCC(=O)O)c1ccc(-c2ccc(Cl)cc2)cc1`, the melting point fell in the range of 158 to 160 °C.
In the case of `CC(C)(OCc1cc2cc(Cl)ccc2n1S(=O)(=O)c1ccc2ncsc2c1)C(=O)O` it was 74 °C; in that of `COc1cnn(-c2cccc(COc3ccccc3)c2)c(=O)c1OC`, 82 to 85 °C.
In turn, `CCn1cc(C(=O)O)c(=O)c2cc(F)c(-n3cccc3)nc21` came in with a melting point of 257 to 259 °C.
In the case of `c1ccc2c(c1)CCn1cnnc1C2` it was 191 °C; in that of `CCCc1nn(-c2ccc(C(F)(F)F)cn2)cc1CCCOc1ccc(F)c(CC(=O)O)c1`, 111 to 112 °C.
On to `NC(=O)CN1C[C@@H]2CCC[C@@H]2C1=O` (relative stereo), for which the melting point is 138 to 141 °C.
For `Cc1ccc(NC(=O)c2cccc(N(C)C)c2)cc1NC(=O)c1ccccc1O`, the melting point was 136 to 139 °C.
The molecule `O=Cc1cc(C=O)c(C#Cc2ccccc2)cc1C#Cc1ccccc1` showed a melting point of 170 to 172 °C.
The molecule `CNc1c(C)c(C)c(OC(C)=O)c(C)c1N` showed a melting point of 113 to 116 °C.
For the molecule `CCCCc1nc2cccc(COC)c2n1Cc1ccc(-c2ccccc2CO)cc1`, the melting point was 126 to 127 °C.
The molecule `COC1=CC(=O)C(Br)=CC1=O` returned a melting point of 184 to 186 °C.
In turn, `CN1C(=O)C(C(=O)Nc2ccc(F)cc2)S(=O)(=O)c2cc(F)ccc21` (stereo not drawn) registered a melting point of 153 to 155 °C.
For `COC(=O)c1cc2c(N3CCNCC3)cccc2[nH]1`, the melting point lay in the range of 177 to 180 °C.
Molecule `Nc1nc(N)c2c(ccc3c2cc(Cl)n3Cc2ccccc2)n1` returned a melting point of 285 to 286 °C.
The molecule `CC(C)C(=O)CCSc1cc(C(C)(C)C)c(O)c(C(C)(C)C)c1` showed a melting point of 50 to 53 °C.
In turn, `CC(C)(C)c1cc(Cn2nc(CCCCc3nn(Cc4cc(C(C)(C)C)c(O)c(C(C)(C)C)c4)c(=O)o3)oc2=O)cc(C(C)(C)C)c1O` showed a melting point of 190 °C.
For `CC(Cc1ccc(OCCCCO)cc1)NCC(O)c1cccc(C(F)(F)F)c1` (stereo not drawn), the melting point lay in the range of 69 to 76 °C.
`COc1cc(C2CCNCC2)ccc1Nc1ncc2ccc(N3CC(c4ccccc4)CC3=O)n2n1` (stereo not drawn): the melting point was in the range of 178 to 183 °C.
In the case of `CCCCCCC(O)CCCCCCCCCCCOCC(O)CNCCO` (stereo not drawn), the melting point was 71.8 to 72.5 °C.
Take `CCc1nc2cc(C)c(Cl)nc2n1-c1ccc(CCNC(=O)NS(=O)(=O)c2ccc(C)cc2)cc1`: the melting point fell in the range of 205 to 206 °C.
For `COC(=O)c1ccc2c(c1)N(C)C(=O)c1cccnc1N2` the value was 273 to 276 °C; for `COc1cccc(COc2ccc(-c3cccc(NC(Cc4ccccc4)C(=O)O)c3)cc2)c1` (stereo not drawn), 159 to 162 °C; for `OC1C(COC2CC2)OC(n2cnc3c(NC4CCCC4)nc(Cl)nc32)C1O` (stereo not drawn), 104 to 106 °C.
On to `CNc1ccc(N2CCOC2=O)cc1[N+](=O)[O-]`, for which the melting point stood at 192 °C.
The molecule `CCC(=NOCC=CCl)C1=C(O)CC(c2ccc(NS(C)(=O)=O)cc2)CC1=O` (stereo not drawn) displayed a melting point of 125 to 127 °C.
`COc1ccc(NC(=O)OC(C)(C)C)c(C(=O)NCCc2ccc(N=C(N)c3cccs3)cc2)c1` came in with a melting point of 190 to 192 °C.
In the case of `COc1cc(C)nc(NC(=O)NS(=O)(=O)c2cccc3cccnc23)n1` it was 181 to 185 °C; in that of `NC(=O)c1cc2c(OCCCN3CCN(C(c4ccccc4)c4ccccc4)CC3)cccc2[nH]1`, 222 to 223 °C.
Consider `CC/C(=C\C#N)c1ccc2c(c1)C(CC)(CC)OC(=O)N2`, for which the melting point was in the range of 135 to 136 °C.
In turn, `COc1cc(CC(=O)NCCCc2ccc(C)c(C)c2)ccc1OCCBr` gave a melting point of 105 °C.
With `COc1ccc2c(c1)C(=O)N(c1ccc3c(c1)cc(C)n3C)C2`, the melting point lay within 209 to 213 °C.
For `CCOc1ccc(S(=O)(=O)NCc2ccccn2)cc1-c1nc2cccnc2c(=O)[nH]1`, the melting point lay in the range of 230 to 231 °C.
`CN1CCN(CCC(=O)Nc2ccc3c(c2)C(=O)c2cc(NC(=O)CCN4CCN(C)CC4)ccc2C3=O)CC1` returned a melting point of 284 °C.
`Cc1ccc(-c2ccc3c(c2)C=C(C(=O)Nc2ccc(CN4CCSCC4)cc2)CC3)cc1` showed a melting point of 178 to 180 °C.
For `O=C1NC2(CCCCC2)c2ccccc21` the value was 232 to 234 °C; for `O=C(NC(=O)c1c(F)cccc1Cl)Nc1ccc(S(=O)C(F)(F)C(F)F)cc1F` (stereo not drawn), 213 to 216 °C; for `COC(=O)CCc1ccc(-n2ncn(-c3ccc(C(=N)NC(=O)OC)cc3)c2=O)cc1`, 296 to 298 °C.
Consider `CCc1ccc(-c2[nH]nc3c2C(=O)c2c(NC(C)=O)cccc2-3)cc1`, for which the melting point was 294 °C.
`O=C1c2ccccc2S(=O)(=O)N1CSc1nnc(SCCN2CCCCC2)s1` showed a melting point of 100 to 101 °C.
`Cc1cc2c(Oc3ccccc3Cl)cccc2[nH]1`: the melting point was 138 to 140 °C.
The molecule `COC(=O)CCc1conc1-c1ccc(F)c(Cl)c1` came in with a melting point of 39 to 40 °C.
As to `CCCc1c(OCCCCCc2ccc(O)c(O)c2)ccc(C(C)=O)c1O`, the melting point lay in the range of 126 to 127 °C.
`CC(=O)c1ccccc1NC(=O)Cc1ccccc1` gave a melting point of 78 °C.
`COc1ccc2nc(Nc3ccc(F)cc3C)nc(N(C)c3ccccc3)c2c1` displayed a melting point of 248 to 250 °C.
For `COc1cc(COc2nn(-c3ccccc3)cc2C=O)ccc1OCc1nc(N2CCOCC2)sc1C` the value was 149 to 150 °C.
`Cc1cc(C[C@@H](NC(=O)c2cccc3c2C=CCCC3)[C@@H](O)c2ccc(F)cc2)cc(OC(F)(F)C(F)F)c1` (racemic): the melting point fell in the range of 175 to 176 °C.
`CCOC1(OCC)OC(C)=C(C(=O)Nc2ccc(Cl)cc2)[C@@H](NC(C)=O)[C@@H]1C` (relative stereo): the melting point lay in the range of 199 to 201 °C.
With `Cc1c(C(=O)O)cnn1-c1nc(-c2ccccc2C(F)(F)F)cs1`, the melting point came to 216 °C.
`COC(=O)c1cc(=O)n(C)c2ccc(C(=O)c3ccc(Cl)cc3)cc12` showed a melting point of 182 °C.
For `Fc1ccc(Nc2ccccc2C=C(Br)Br)cc1` the value was 75 to 77 °C; for `CNCC(O)COc1cc(-c2ccc(OC)cc2)nc2cc(C)ccc12` (racemic), 140 to 142 °C; for `CCOC(=O)CNCc1cc(N(C)C)ccc1[N+](=O)[O-]`, 70 to 72 °C.
`CC(O)c1cc2c(n1C)C(=O)c1cccc(O)c1C2=O` (stereo not drawn) returned a melting point of 219 to 220 °C.
Regarding `CN1C(C)(C)CC(OP2OCC3(CO2)COP(OC2CC(C)(C)N(C)C(C)(C)C2)OC3)CC1(C)C` (stereo not drawn), the melting point stood at 106 °C.
`O=C1c2cc3nnn(Cc4cccc(F)c4)c(=O)c3cc2OC2CCCN12` (stereo not drawn) displayed a melting point of 183 to 185 °C.
`Cc1ccc(C2OC(CO)C(O)C(O)C2O)cc1Cc1ccc(-c2ccc(F)cc2)s1` (stereo not drawn) came in with a melting point of 106 to 107 °C.
In turn, `Oc1cnccc1CCCOc1cccnc1Cc1cccc(Br)c1` showed a melting point of 138 to 139 °C.
The molecule `CC(NC(=O)C(C)(C(C)C)C(C)C)c1ccco1` (stereo not drawn) registered a melting point of 57 to 60 °C.
With `COc1ccc(Cn2cc[nH]c2=O)cc1`, the melting point was determined as 132 °C.
Molecule `NNC(=O)c1cccc2nnsc12` returned a melting point of 270 to 272 °C.
Molecule `O=C(Nc1nc(C(F)(F)F)c(I)s1)c1cccs1` showed a melting point of 184 to 185 °C.
In the case of `CCCCCCCCC1C=CC(/C(C)=C/c2ccc(C(=O)O)o2)=C2N=C3CCCCC3=C21` (stereo not drawn), the melting point was in the range of 152 to 154 °C.
Consider `CC(C)Nc1nc(-n2cccn2)nc(Cl)c1-c1c(F)cccc1Cl`, for which the melting point lay within 94 to 98 °C.
`CCOC(=O)CN1C[C@@H](C(N)=O)N(CC(=O)OCC)C[C@@H]1C(N)=O` showed a melting point of over 260 °C.
`Cc1cccc(-c2c(O)c3ccc(Cl)cc3[nH]c2=O)c1` registered a melting point of over 350 °C.
As to `CCCC(C)NC1=NS(=O)(=O)c2cc(Cl)c(Cl)cc2N1` (stereo not drawn), the melting point was in the range of 217 to 220 °C.
On to `C=CCn1c(C)nc2c1CCCC2=O`, for which the melting point was determined as 78 °C.
`COC(=O)C1CCc2nc(N)sc2C1` (stereo not drawn) yielded a melting point of 148 to 168 °C.
Molecule `O=C(CCCOc1ccccc1OCc1ccccc1)C(F)(F)F` returned a melting point of 50 to 51 °C.
In the case of `COc1ccc(C2CC[N+]([O-])(CCC3CCOc4ccccc43)CC2)cc1OC` (stereo not drawn) it was 97 °C; in that of `CNC(=O)c1cc(-c2ccc(OC)cc2)nn(CC2CC2)c1=O`, 137 to 138 °C.
For `O=c1[nH]c2c(C(F)(F)F)cccc2c(=O)n1CCCN1CC=C(c2ccc(Cl)cc2)CC1`, the melting point lay in the range of 199 to 201 °C.
As to `Cn1cc(C(=O)O)c(=O)c2c3cc(F)c(N4CCN(c5ccc(F)cc5)CC4)cc3ncc21`, the melting point stood at 346 °C.
As for `Cc1ccn2c(C(=O)O)c(C)nc2c1`, the melting point lay within 180 to 183 °C.
Consider `COC[C@H](C)Oc1cc(O)cc(C(=O)O)c1`, for which the melting point was found to be 95 °C.
Consider `CC(C)c1ccc(/C=C/c2cc(/C=C/c3ccc4cc[nH]c4c3)n[nH]2)cc1`, for which the melting point fell in the range of 208 to 212 °C.
In turn, `CCOC(=O)c1cc2c(C)cccc2n1CCC(=O)O` gave a melting point of 133 to 134 °C.
For `CCOC(=O)c1cn(Cc2ccccc2)c2c(OC)c(F)c(F)c(N)c2c1=O`, the melting point fell in the range of 134 to 135 °C.
With `Cc1nc(C=Cc2nc3ccc(F)cc3c(=O)n2-c2ccccc2Br)cs1`, the melting point lay in the range of 233 to 234 °C.
`Cc1sc2c(Br)c3ccccc3c(-c3cc(Br)c(O)c(C(C)C)c3)c2c1C` showed a melting point of 157 to 162 °C.
`CC1CC2C3CCC4=CC(=O)C=CC4(C)C3=CCC2(C)C1C(=O)COS(=O)(=O)c1ccc([N+](=O)[O-])cc1` (stereo not drawn) yielded a melting point of 151 to 160 °C.
Regarding `C=Cc1c(N)cc(-c2ccc(Cl)c(OC)c2F)nc1C(=O)O`, the melting point was in the range of 209 to 211 °C.
